Laboratory results taken from patent US20090170901A1, “Benzoyl Urea Derivatives” (priority 2004, published 2009).
pIC50: −log10 of the molar value. Read-outs that look alike come from different tables or passages of the source.

What was measured:
[1] = system: NMRI mice; test: Mouse formalin test (second phase) for in vivo efficacy; settings: for ED50 at 20 mg/kg: Mus musculus, po
[2] = biological target: T1, NR1-3/NR2A NMDA receptor (Homo sapiens, UniProt Q05586+Q12879); test: Functional NMDA antagonism, fluorimetric intracellular calcium measurement on HEK293 cells expressing NR1-3/NR2A; format: cell-based; settings: NMDA evoked calcium rise, NR1-3/NR2A transfected HEK293 cells; for inhibition at 15 µM: Table 1, 15 uM compound
T1 construct: expressed in transfected cells
Protocol: (1997); Neurochemistry International, 43, 19-29. (2003)]. […] Compounds were tested for their inhibitory action on NMDA evoked cytosolic calcium elevations in fluorescent calcium measurements. Studies were performed 48-72 h after addition of the inducing agent. Ketamine (500 μM) was also present during the induction in order to prevent cytotoxicity.
(§1) Assessing the Functional NMDA Antagonist Potency of Compounds on HEK293 cells expressing Recombinant NMDA Receptors Based on Measuring the Intracellular Calcium Concentration Using a Fluorimeter Plate Reader
Since NMDA receptors are known to be permeable to calcium ions upon excitation, the extent of NMDA receptor activation, and its inhibition by functional antagonists can be characterised by measuring the rise in the intracellular calcium concentration following agonist (NMDA) application onto the cells. Since there is very high sequence homology between rat and human NMDA receptors (99, 95, 97% for NR1, NR2A, and NR2B subunits, respectively), it is believed that there is little, if any, difference in their pharmacological sensitivity.
The intracellular calcium measurements are carried out on HEK293 cells expressing NR1a and NR2B or NR2A NMDA receptor subunits. Cells are plated onto standard 96-well microplates and the cultures are maintained in an atmosphere of 95% air-5% CO2 at 37° C. until testing.
(§2) The cells are loaded with a fluorescent Ca^2+-sensitive dye, Fluo-4/AM (2-2.5 μM) prior to testing. Loading is stopped by washing twice with the solution used also during the measurement (140 mM NaCl 5 mM KCl, 2 mM CaCl2, 5 mM HEPES [4-(2-hydroxyethyl)-1-piperazineethane-sulfonic acid], 5 mM HEPES—Na, 20 mM glucose, 10 μM glycine, pH=7.4). Then the test compound dissolved in the above solution (90 μl/well) is added. Intracellular calcium measurements are carried out with a plate reader fluorimeter. A rise in Fluo-4-fluorescence that reflects the intracellular calcium concentration is induced by application of 200 μM NMDA. Inhibitory potency of the test compound is assessed by measuring the reduction in the calcium elevation in the presence of different concentrations of the compound.
(§3) Inhibitory potency of a compound at a single concentration point is expressed as percent inhibition of the control NMDA response. For NR1a/NR2B expressing cells concentration-inhibition curves are produced. Sigmoidal concentration-inhibition curves are fitted over the data and IC50 values are defined as the concentration that produces half of the maximal inhibition that could be achieved with the compound. Mean IC50 values are derived from at least three independent experiments. For NR1-3/NR2A expressing cells antagonism of NMDA induced rise in intracellular calcium concentration by compounds of the present invention and reference compounds was tested at 10 and 15 microM concentration, respectively.

[3] = biological target: T2, NR1a/NR2B NMDA receptor (Rattus norvegicus, UniProt P35439+Q00960); test: Functional NMDA antagonism, fluorimetric intracellular calcium measurement on HEK293 cells expressing NR1a/NR2B; format: cell-based
T2 construct: expressed in transfected cells
Protocol: Compounds were tested for their inhibitory action on NMDA evoked cytosolic calcium elevations in fluorescent calcium measurements. Studies were performed 48-72 h after addition of the inducing agent. Ketamine (500 μM) was also present during the induction in order to prevent cytotoxicity.
as §1
Since NMDA receptors are known to be permeable to calcium ions upon excitation, the extent of NMDA receptor activation, and its inhibition by functional antagonists can be characterised by measuring the rise in the intracellular calcium concentration following agonist (NMDA) application onto the cells.
The intracellular calcium measurements are carried out on HEK293 cells expressing NR1a and NR2B or NR2A NMDA receptor subunits.
as §2, with “Loading” for “The cells are loaded with a fluorescent Ca^2+-sensitive dye, Fluo-4/AM (2-2.5 μM) prior to testing. Loading”
as §3

[4] = given 15 min before formalin, licking/biting time 20 to 25 min after formalin, >20 means inhibition less than 50% at 20 mg/kg p.o.
[5] = Table 1, inhibition of calcium rise induced by 200 μM NMDA, NR1a/NR2B transfected HEK293 cells, read-out: NR1a/NR2B IC50
[6] = Table 2, reference compounds, 10 uM compound
[7] = ip, mouse formalin test, read-out: ED50

T2 sequence (Q00960 27-1482, other chains not shown): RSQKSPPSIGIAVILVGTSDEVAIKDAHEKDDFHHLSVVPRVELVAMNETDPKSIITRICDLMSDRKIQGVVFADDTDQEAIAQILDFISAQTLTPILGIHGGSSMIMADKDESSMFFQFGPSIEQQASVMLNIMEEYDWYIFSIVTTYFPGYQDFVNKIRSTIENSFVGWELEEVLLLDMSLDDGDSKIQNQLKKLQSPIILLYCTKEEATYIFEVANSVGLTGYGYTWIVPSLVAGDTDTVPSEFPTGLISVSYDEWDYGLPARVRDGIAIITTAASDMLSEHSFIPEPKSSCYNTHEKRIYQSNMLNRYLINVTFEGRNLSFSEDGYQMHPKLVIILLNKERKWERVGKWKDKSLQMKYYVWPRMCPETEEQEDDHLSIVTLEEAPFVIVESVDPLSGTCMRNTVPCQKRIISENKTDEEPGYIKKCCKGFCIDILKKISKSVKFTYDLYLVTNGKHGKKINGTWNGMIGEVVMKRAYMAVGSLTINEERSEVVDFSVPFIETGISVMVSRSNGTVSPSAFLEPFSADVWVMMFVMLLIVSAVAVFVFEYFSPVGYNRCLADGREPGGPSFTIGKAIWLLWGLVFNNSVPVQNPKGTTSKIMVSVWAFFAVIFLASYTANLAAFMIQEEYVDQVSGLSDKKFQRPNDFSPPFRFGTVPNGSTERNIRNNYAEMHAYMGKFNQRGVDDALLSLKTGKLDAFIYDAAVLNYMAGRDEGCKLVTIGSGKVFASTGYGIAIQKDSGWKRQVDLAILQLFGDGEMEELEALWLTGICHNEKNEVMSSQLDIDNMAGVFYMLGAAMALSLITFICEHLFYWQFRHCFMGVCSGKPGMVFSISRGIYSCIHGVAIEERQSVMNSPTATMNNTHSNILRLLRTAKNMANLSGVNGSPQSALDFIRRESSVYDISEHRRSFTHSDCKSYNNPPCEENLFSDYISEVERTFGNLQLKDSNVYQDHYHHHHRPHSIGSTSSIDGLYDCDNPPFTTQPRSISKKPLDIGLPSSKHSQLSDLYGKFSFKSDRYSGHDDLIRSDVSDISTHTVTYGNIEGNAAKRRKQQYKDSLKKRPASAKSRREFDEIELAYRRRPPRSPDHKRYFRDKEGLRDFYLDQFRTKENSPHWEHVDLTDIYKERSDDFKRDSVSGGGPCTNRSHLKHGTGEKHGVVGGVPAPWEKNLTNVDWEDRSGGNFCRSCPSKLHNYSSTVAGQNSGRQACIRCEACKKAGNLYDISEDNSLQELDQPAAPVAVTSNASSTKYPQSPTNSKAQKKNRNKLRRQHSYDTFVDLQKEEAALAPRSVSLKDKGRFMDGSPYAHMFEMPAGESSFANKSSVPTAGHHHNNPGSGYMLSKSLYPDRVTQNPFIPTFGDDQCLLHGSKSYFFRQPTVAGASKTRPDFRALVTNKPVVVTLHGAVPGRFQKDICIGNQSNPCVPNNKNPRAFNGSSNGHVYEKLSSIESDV
T1 sequence (Q12879 23-1464, other chains not shown): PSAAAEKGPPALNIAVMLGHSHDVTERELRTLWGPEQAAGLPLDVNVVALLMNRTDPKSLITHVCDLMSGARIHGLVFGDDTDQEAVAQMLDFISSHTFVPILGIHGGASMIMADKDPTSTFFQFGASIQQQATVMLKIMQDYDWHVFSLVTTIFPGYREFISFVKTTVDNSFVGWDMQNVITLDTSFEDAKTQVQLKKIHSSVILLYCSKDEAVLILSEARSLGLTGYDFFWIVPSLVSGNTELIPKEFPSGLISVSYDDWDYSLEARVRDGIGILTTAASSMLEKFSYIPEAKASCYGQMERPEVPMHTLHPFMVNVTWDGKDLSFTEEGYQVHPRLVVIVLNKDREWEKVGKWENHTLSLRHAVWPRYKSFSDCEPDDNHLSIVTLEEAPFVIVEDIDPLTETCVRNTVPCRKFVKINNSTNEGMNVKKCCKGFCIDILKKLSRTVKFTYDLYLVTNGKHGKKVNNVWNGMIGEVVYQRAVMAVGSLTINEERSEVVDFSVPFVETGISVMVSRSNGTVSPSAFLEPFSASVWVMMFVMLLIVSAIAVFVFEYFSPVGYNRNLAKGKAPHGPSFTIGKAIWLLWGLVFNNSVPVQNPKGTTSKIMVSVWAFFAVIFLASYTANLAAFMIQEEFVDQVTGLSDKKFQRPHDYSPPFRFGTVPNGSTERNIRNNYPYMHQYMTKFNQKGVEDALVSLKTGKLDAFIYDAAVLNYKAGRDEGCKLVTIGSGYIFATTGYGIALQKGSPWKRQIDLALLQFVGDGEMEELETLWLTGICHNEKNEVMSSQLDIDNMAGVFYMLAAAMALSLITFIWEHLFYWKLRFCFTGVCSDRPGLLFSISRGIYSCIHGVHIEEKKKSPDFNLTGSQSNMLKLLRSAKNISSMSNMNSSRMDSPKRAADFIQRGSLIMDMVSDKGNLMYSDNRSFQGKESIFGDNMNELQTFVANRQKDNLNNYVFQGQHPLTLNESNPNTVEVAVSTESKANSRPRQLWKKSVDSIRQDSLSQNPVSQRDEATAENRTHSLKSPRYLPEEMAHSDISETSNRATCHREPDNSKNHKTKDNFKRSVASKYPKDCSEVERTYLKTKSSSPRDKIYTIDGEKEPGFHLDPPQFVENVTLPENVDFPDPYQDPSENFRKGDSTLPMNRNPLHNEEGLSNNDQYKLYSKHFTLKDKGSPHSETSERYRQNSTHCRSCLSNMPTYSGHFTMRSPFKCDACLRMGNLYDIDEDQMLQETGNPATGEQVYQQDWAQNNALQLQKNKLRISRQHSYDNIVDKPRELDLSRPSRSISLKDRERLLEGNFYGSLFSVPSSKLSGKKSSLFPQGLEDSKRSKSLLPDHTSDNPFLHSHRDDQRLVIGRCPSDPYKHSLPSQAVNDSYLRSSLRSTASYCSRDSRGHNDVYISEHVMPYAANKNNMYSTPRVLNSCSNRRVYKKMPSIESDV

inhibition at 15 µM [2] | pIC50 [3, 5] | Compound | ED50 at 20 mg/kg [1, 4] | further results
-0.9% | 7.23 | COc1cccc(CC2CCN(C(=O)NC(=O)c3ccc(O)cc3)CC2)c1 [Example 26, 4-(3-Methoxy-benzyl)-piperidine-1-carboxylic Acid 4-hydroxy-benzoylamide] |  | 
2.6% | 7.55 | O=C(NC(=O)N1CCC(Cc2ccccc2)CC1)c1ccc(O)cc1 [Example 1, 4-Benzyl-piperidine-1-carboxylic Acid 4-hydroxy-benzoylamide] |  | 
11.4% | 7.84 | Cc1ccc(CCC2CCN(C(=O)NC(=O)c3ccc(O)cc3)CC2)cc1 [Example 27, 4-[2-(p-Tolyl)-ethyl]-piperidine-1-carboxylic acid 4-hydroxy-benzoylamide] |  | 
-5.7% | 8.12 | COc1ccc(CC2CCN(C(=O)NC(=O)c3ccc(O)cc3)CC2)cc1 [Example 2, 4-(4-Methoxy-benzyl)-piperidine-1-carboxylic Acid 4-hydroxy-benzoylamide] |  | 
-6.7% | 7.22 | O=C(NC(=O)N1CCC(Cc2ccccc2)CC1)c1ccc2[nH]c(=O)oc2c1 [Example 7, 4-Benzyl-piperidine-1-carboxylic Acid (2-oxo-2,3-dihydro-benzooxazole-6-carbonyl)-amide] |  | 

Second part, the compound before the results:

Compound | inhibition at 15 µM [2] | pIC50 [3, 5] | ED50 at 20 mg/kg [1, 4] | further results
C[C@@H]([C@@H](O)c1ccc(O)cc1)N1CCC(O)(c2ccccc2)CC1 [CP 101,606, (1S,2S)-1-(4-hydroxyphenyl)-2-(4-hydroxy-4-phenylpiperidine-1-yl)-1-propanol] |  |  | > 20 mg/kg | 
O=c1[nH]c2ccc([S+]([O-])CCN3CCC(Cc4ccc(F)cc4)CC3)cc2o1 (centres unmarked) [CI-1041, 6-{2-[4-(4-fluoro-benzyl)-piperidin-1-yl]-ethanesulfinyl}-3H-benzooxazol-2-one] |  |  | 2.4 mg/kg | 
O=C(CCN1CCC(Cc2ccc(F)cc2)CC1)c1ccc2[nH]c(=O)oc2c1 [EMD 95885, reference compound] |  |  |  | NR1-3/NR2A % inhibition at 10 uM [2, 6]: 0.1%; ED50 ([1]; p.o., given 15 min before formalin, licking/biting time 20 to 25 min after formalin, >20 means inhibition less than 50% at 20 mg/kg p.o.): 3.7 mg/kg; pIC50 ([3]; Table 2, reference compounds, inhibition of calcium rise induced by 200 μM NMDA, NR1a/NR2B transfected HEK293 cells, read-out: NR1a/NR2B IC50): 7.32
O=C(NC(=O)N1CCC(CSc2ccccc2)CC1)c1ccc(O)cc1 [Example 28, 4-(Phenylthio-methyl)-piperidine-1-carboxylic Acid 4-hydroxy-benzoylamide] | -2.9% | 7.23 |  | 
Cc1ccc(CC2(O)CCN(CCOc3ccc(O)cc3)CC2)cc1 [Co-101244, 1-[2-(4-hydroxyphenoxy)ethyl]-4-hydroxy-4-(4-methylbenzyl)piperidine] |  |  | > 20 mg/kg | ED50 [1, 7]: 5.9 mg/kg
C[C@@H](CN1CCC(Cc2ccccc2)CC1)[C@@H](O)c1ccc(O)cc1 [Ro 25.6981, R—(R*,S*)-1-(4-hydroxyphenyl)-2-methyl-3-[4-(phenylmethyl)piperidin-1-yl]-1-propanol, reference compound] |  |  | > 20 mg/kg | inhibition at 10 µM [2, 6]: 1%; ED50 [1, 7]: 5.1 mg/kg; pIC50 [3]: 7.24
